One compound from patent publication US20110065712A1, “TRICYCLIC COMPOUNDS AND PHARMACEUTICAL USES THEREOF” (CYLENE PHARMACEUTICALS , INC., priority 2009, published 2011) can be followed below.

Structures are written as SMILES.

For assay [1], the target named is recombinant human Pim-2 (Homo sapiens, UniProt Q9P1W9). As to the kind of experiment: PIM-2 assay (33P-ATP, filter plate). In kind it is biochemical. Particulars: read-out: PIM2: IC50. As for the experimental part: Test compounds dissolved and diluted in DMSO (2 μl) were added to a reaction mixture comprising 10 μl of 5× Reaction Buffer (40 mM MOPS pH 7.0, 5 mM EDTA), 10 μl of recombinant human Pim-2 solution (4 ng Pim-2 dissolved in dilution buffer (20 mM MOPS pH 7.0; EDTA 1 mM; 5% Glycerol; 0.01% Brij 35; […]; […] 2-mercaptoethanol; 1 mg/ml BSA)) and 8 ul of water. Reactions were initiated by the addition of 10 ul of ATP Solution (49% (15 mM MgCl2; 75 uM ATP) 1% ([γ-^33P]ATP: Stock 1mCi/1000; 3000Ci/mmol (Perkin Elmer)) and 10 ul of substrate peptide solution (RSRSSYPAGT, dissolved in water at a concentration of 1 mM), Reactions were maintained for 10 min at 30° C. The reactions were quenched with 100 ul of 0.75% phosphoric acid, then transferred to and filtered through a Phosphocellulose filter plate (Millipore, MSPH-N6B-50). After washing each well 4 times with 0.75% phosphoric acid, scintillation fluid (20 uL) was added to each well and the residual radioactivity was measured using a Wallac […] counter.

Assay [2] addresses recombinant Pim-1 (Homo sapiens, UniProt P11309). As to the kind of experiment: Pim-1 assay (33P-ATP, filter plate). In kind it is biochemical. Particulars: read-out: PIM1: IC50. The protocol: The following procedure was used to assay the Pim-1 kinase activity of compounds of the invention. Other methods for assaying Pim-1 and other Pim kinases, as well as methods to assay for activity against the various kinases disclosed herein are known in the art.
In a final reaction volume of 50 ul, recombinant Pim-1 (1 ng) was incubated with 12 mM MOPS pH 7.0, 0.4 mM EDTA, glycerol 1%, brij 35 0.002%, 2-mercaptoethanol 0.02%, BSA 0.2 mg/ml, 100 uM KKRNRTLTK, 10 mM MgAcetate, 15 uM ATP, [γ-^33P-ATP] (specific activity approx. […]), DMSO 4% and test inhibitor compound at the required concentration. The reaction was initiated by the addition of the magnesium ATP mixture. After 40 min incubation at 23° C., the reactions were quenched by the addition of 100 ul 0.75% Phosphoric acid, and the labeled peptide collected by filtration through a phosphocellulose filter plate. The plate was washed 4 times with 0.075% phosphoric acid (100 ul per well) and then, after the addition of scintillation fluid (20 ul per well), the counts were measured by a scintillation counter.

recombinant human Pim-2, sequence (Q9P1W9 whole entry): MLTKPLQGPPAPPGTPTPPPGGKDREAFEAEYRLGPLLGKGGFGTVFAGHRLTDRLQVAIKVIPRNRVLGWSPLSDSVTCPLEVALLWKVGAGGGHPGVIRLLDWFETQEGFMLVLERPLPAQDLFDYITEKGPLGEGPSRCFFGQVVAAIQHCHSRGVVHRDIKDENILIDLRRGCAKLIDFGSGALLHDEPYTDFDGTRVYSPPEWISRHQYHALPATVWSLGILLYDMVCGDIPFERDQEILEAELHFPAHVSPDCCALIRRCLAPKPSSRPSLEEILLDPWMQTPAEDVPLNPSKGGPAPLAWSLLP
recombinant Pim-1, sequence (P11309 whole entry): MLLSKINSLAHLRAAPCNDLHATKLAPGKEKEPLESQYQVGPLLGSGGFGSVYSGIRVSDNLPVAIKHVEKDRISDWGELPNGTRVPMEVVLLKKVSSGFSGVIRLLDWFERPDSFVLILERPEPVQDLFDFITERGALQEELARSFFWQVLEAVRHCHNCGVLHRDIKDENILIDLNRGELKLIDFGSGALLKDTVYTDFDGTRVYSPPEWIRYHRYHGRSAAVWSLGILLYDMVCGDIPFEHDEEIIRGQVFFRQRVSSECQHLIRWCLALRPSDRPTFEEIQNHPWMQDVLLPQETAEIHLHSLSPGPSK

On to `NC(=O)c1cnn2c1nc(Nc1ccccc1Cl)c1ccccc12` [Compound B, 5-(2-chlorophenylamino)pyrazolo[1,5-a]quinazoline-3-carboxamide], for which the IC50 in assay [1] and in assay [2] was below 1000 nM each time.
